Test results: patent publication US6656911B2, “Serine protease inhibitors” (Cortech, Inc., priority 1994, dated 2003)

Key:
[1] = molecular target: T1, human neutrophil elastase (HNE) (Homo sapiens, UniProt P08246); test: HNE Ki of CE compounds, tested as described in WO 96/16080; assay type: biochemical; conditions: read-out: HNE Ki
T1 sequence (P08246 30-267): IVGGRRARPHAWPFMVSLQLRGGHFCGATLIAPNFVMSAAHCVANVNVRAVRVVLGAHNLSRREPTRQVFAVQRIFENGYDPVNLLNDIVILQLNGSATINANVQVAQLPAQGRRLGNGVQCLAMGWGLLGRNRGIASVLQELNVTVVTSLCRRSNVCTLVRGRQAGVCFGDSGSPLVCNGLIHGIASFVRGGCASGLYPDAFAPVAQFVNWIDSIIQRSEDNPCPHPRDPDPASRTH

[2] = Blood level screening after oral dose; assay type: in vivo, Sprague-Dawley rats; conditions: male, Sprague-Dawley, plasma; rat, oral gavage 10 mg/kg, 3 hr; read-out: Plasma Levels (μM) 3 hr
Description: The inhibitors were dissolved or suspended in polyethylene glycol (PEG), PEG-400 or PEG:H2O:EtOH at a concentration of 10 mg/ml. Unfasted male Sprague-Dawley rats were given an oral dose of this solution by gavage. Rats received 10 mg inhibitor/kg body weight in a volume of 1 ml/kg. After 1,3 or 6 hr., the rats were killed with an overdose of urethane (2.5 g/kg; i.p.) and the blood collected in a heparinized tube via cardiac puncture. Red blood cells were separated from the plasma by centrifugation.
Depending on the inhibitor, one of four organics (ethyl acetate, toluene, isopropyl ether or methyl t-butyl ether) was used to extract the compound from the plasma. Inhibitor concentrations were measured by HPLC or LC/MS analysis.

Structure (SMILES) | Ki [1] [nM] | concentration at 3 h [2] [µM]
CC(C)[C@H](NC(=O)[C@@H]1Cc2ccccc2N1C(=O)[C@@H](NC(=O)OCc1ccccc1)C(C)C)C(=O)c1noc(Cc2cccc(C(F)(F)F)c2)n1 [CE2125, (Benzyloxycarbonyl)-L-valyl-2-L-(2,3-dihydro-1H-indole)-N-[1-(3-[5-(3-trifluoromethylbenzyl)-1,2,4-oxadiazolyl]carbonyl)-2-(S)-methylpropyl]amide] | 0.4 | 0.011
COC(=O)N[C@H](C(=O)N1CCC[C@H]1C(=O)N[C@H](C(=O)c1noc(Cc2cccc(C(F)(F)F)c2)n1)C(C)C)C(C)C [CE2214, Methyloxycarbonyl-L-valyl-N-[1-(3-[5-(3 trifluoromethylbenzyl)-1,2,4-oxadiazolyl]carbonyl)-2-(S)-methylpropyl]-L-prolinamide] | 0.92 | 0
Cc1cccc(Cc2nc(C(=O)[C@@H](NC(=O)[C@@H]3CCCN3C(=O)[C@@H](NC(=O)OCc3ccccc3)C(C)C)C(C)C)no2)c1 [CE2055, (Benzyloxycarbonyl)-L-valyl-N-[1-(3-[5-(3-methylbenzyl)-1,2,4-oxadiazolyl]carbonyl)-2-(S)-methylpropyl]-L-prolinamide] | – | 0.002
Cc1cccc(Cc2nc(C(=O)C(NC(=O)CN3C(=O)C(N)N=C(c4ccccc4)c4ccccc43)C(C)C)no2)c1 [CE2221, (R,S)-3-Amino-2-oxo-5-phenyl-1,4-benzodiazepine-N-[1-(3-[5-(3-methylbenzyl)-1,2,4-oxadiazolyl]carbonyl)-2-(R,S)-methylpropyl]acetamide] | 34 | –
Cc1cccc(Cc2nnc(C(=O)[C@@H](NC(=O)CN(Cc3ccccc3)C(=O)Cc3ccccc3)C(C)C)o2)c1 [CE2210, (N-Benzylcarbonyl)-N-(benzyl)glycyl-N-[1-(2-[5-(3-methylbenzyl)-1,3,4,-oxadiazolyl]carbonyl)-2-(S)-methylpropyl]amide] | 22.7 | –
COC(=O)c1ccc(C=C2C(=O)N(C(C)=O)CC(=O)N2CC(=O)N[C@H](C(=O)c2nnc(Cc3cccc(C)c3)o2)C(C)C)cc1 [CE2112, 1-Acetyl-3-(4-carbomethoxybenzylidene) piperazine-2,5-dione-N-[1-(2-[5-(3-methylbenzyl)-1,3,4-oxadiazolyl]carbonyl)-2-(S)-methylpropyl]acetamide] | 1.2 | –
CC(C)[C@H](NC(=O)CN1C(=O)N[C@@H](Cc2ccccc2)C1=O)C(=O)c1noc(Cc2cccc(C(F)(F)F)c2)n1 [CE2155, 5-(S)-Benzyl-2,4-imidazolidinedione-N-[1-(3-[5-(3-trifluoromethylbenzyl)-1,2,4-oxadiazolyl]carbonyl)-2-(S)-methylpropyl]acetamide] | 57 | –
CC(C)[C@H](NC(=O)Cn1c(-c2ccc(F)cc2)ncc(NC(=O)OCc2ccccc2)c1=O)C(=O)c1noc(Cc2cccc(C(F)(F)F)c2)n1 [CE2089, 2-[5-[(Benzyloxycarbonyl]amino]-6-oxo-2-(4-fluorophenyl)-1,6-dihydro-1-pyrimidinyl]-N-[1-(3-[5-(3-trifluoromethylbenzyl)-1,2,4-oxadiazolyl]carbonyl)7(S)-2-methylpropyl]acetamide] | 1.5 | –
CC(C)[C@H](NC(=O)CN1Cc2ccccc2NC1=O)C(=O)c1noc(Cc2cccc(C(F)(F)F)c2)n1 [CE2219, 1,4-Quinazolin-2-one-N-[1-(3-[5-(3-trifluoromethylbenzyl)-1,2,4-oxadiazolyl]carbonyl)-2-(S)-methylpropyl]acetamide] | 537 | –
Cc1cccc(Cc2nc(C(=O)C(NC(=O)[C@@H]3Cc4cccc5c4N3C(=O)[C@@H](N)CC5)C(C)C)no2)c1 (stereo partly drawn) [CE2220, (2S,5S)-5-Amino-1,2,4,5,6,7-hexahydroazepino-[3.2.1]-indole-4-one-carbonyl-N-[1-(3-[5-(3-methylbenzyl)-1,2,4-oxadiazolyl]carbonyl)-2-(R,S)-methylpropyl]amide] | 52 | –
Cc1cccc(Cc2nnc(C(=O)[C@@H](NC(=O)Cn3c(=O)[nH]n(-c4ccccc4)c3=O)C(C)C)o2)c1 [CE2166, 1-Phenyl-1,2,4-triazolidine-3,5-dione-N-[1-(2-[5-(3-methylbenzyl)-1,3,4-oxadiazolyl]carbonyl)-2-(S)-methylpropyl]acetamide] | 145 | –
CC(=O)N1CC(=O)N(CC(=O)N[C@H](C(=O)c2nnc(Cc3cccc(C)c3)o2)C(C)C)C(=Cc2ccc(F)cc2)C1=O [CE2105, 1-Acetyl-3-(4-fluorobenzylidene) piperazine-2,5-dione-N-[1-(2-[5-(3-methylbenzyl)-1,3,4-oxadiazolyl]carbonyl)-2-(S)-methylpropyl]acetamide] | 0.72 | –
Cc1cccc(Cc2nnc(C(=O)[C@@H](NC(=O)OCc3ccccc3)C(C)C)o2)c1 [CE2170] | 297 | –
Cc1cccc(Cc2nnc(C(=O)[C@@H](NC(=O)CN3CCC(n4c(=O)[nH]c5ccccc54)CC3)C(C)C)o2)c1 [CE2212, 3-[1-(4-Piperidine)]-benzimidazolidin-2-one-N-[1-(2-[5-(3-methylbenzyl)-1,3,4-oxadiazolyl]carbonyl)-2-(S)-methylpropyl]acetamide] | 124 | –
Cc1cccc(Cc2nnc(C(=O)[C@@H](NC(=O)Cn3c(=O)c(NC(=O)OCc4ccccc4)cc4ccccc43)C(C)C)o2)c1 [CE2108, 3-[(Benzyloxycarbonyl)amino]-quinoline-2-one-N-[1-(2-[5-(3-methylbenzyl)-1,3,4-oxadiazolyl]carbonyl)-2-(S)-methylpropyl]acetamide] | 10.5 | –
CC(C)[C@H](NC(=O)Cn1c(-c2ccc(F)cc2)ccc(N)c1=O)C(=O)c1nnc(Cc2ccc3c(c2)OCO3)o1 [CE2261] | 0.36 | –
Cc1cccc(Cc2nnc(C(=O)[C@@H](NC(=O)[C@@H]3Cc4ccccc4N3C(=O)[C@@H](NC(=O)OCc3ccccc3)C(C)C)C(C)C)o2)c1 [CE2145, (Benzyloxycarbonyl)-L-valyl-2-L-(2,3-dihydro-1H-indole)-N-[1-(2-[5-(3-methylbenzyl)-1,3,4-oxadiazolyl]carbonyl)-2-(S)-methylpropyl]amide] | 0.038 | –
CC(C)[C@H](NC(=O)CN1C(=O)NC(c2ccc(N(C)C)cc2)C1=O)C(=O)c1noc(Cc2cccc(C(F)(F)F)c2)n1 (stereo partly drawn) [CE2200, [4-(R,S)-(4-Dimethylaminophenyl)]-2,5-imidazolidinedione-N-[1-(3-[5-(3-trifluoromethylbenzyl)-1,2,4-oxadiazolyl]carbonyl)-2-(S)-methylpropyl]acetamide] | 13.7 | –
Cc1cccc(Cc2nnc(C(=O)C(NC(=O)CN3C(=O)CNCC3Cc3ccccc3)C(C)C)o2)c1 [CE2196, (6-(R)-Benzylpiperazin-2-one)-N-[1-(2-[5-(3-methylbenzyl)-1,3,4-oxadiazolyl]carbonyl)-2-(R,S)-methylpropyl]acetamide] | 96 | –
CC(=O)N1c2ccccc2C[C@H]1C(=O)N[C@H](C(=O)c1noc(Cc2cccc(C(F)(F)F)c2)n1)C(C)C [CE2143, Acetyl-2-L-(2,3-dihydro-1H-indole)-N-[1-(3-[5(3-trifluoromethylbenzyl)-1,2,4-oxadiazolyl]carbonyl)-2-(S)-methylpropyl]amide] | 11.5 | –
Cc1cccc(Cc2nnc(C(=O)[C@@H](NC(=O)Cn3c(-c4cccnc4)ncc(N)c3=O)C(C)C)o2)c1 [CE2263, 2-[5-Amino-6-oxo-2-(3-pyridyl)-1,6-dihydro-1-pyrimidinyl]-N-[1-(2-[5-(3-methylbenzyl)-1,3,4-oxadiazolyl]carbonyl)-2-(S)-methylpropyl]acetamide] | 0.67 | –
Cc1cccc(Cc2nnc(C(=O)C(NC(=O)CN3C(=O)CCSC3c3ccccc3)C(C)C)o2)c1 [CE2118, 2-[2-(R,S)-Phenyl-4-oxometathiazan-3-yl]-N-[1-(2-[5-(3-methylbenzyl)-1,3,4-oxadiazolyl]carbonyl)-2-(S)-methylpropyl]acetamide] | 13.2 | –
CC(C)[C@H](NC(=O)CN1C(=O)CN(Cc2ccc3c(c2)OCCO3)C(=O)[C@@H]1Cc1ccccc1)C(=O)c1noc(Cc2cccc(C(F)(F)F)c2)n1 [CE2187] | 42 | –
CC(C)[C@H](NC(=O)CN1C(=O)CN(Cc2ccccc2)C(=O)[C@@H]1Cc1ccccc1)C(=O)c1noc(CCN(C)C)n1 [CE2133, 4-[1-Benzyl-3-(S)-benzylpiperazine-2,5,-dione]-N-[1-(3-[5-(2-dimethylaminoethyl)-1,2,4-oxadiazolyl]carbonyl)-2-(S)-methylpropyl]acetamide] | 33000 | –
Cc1cccc(Cc2nnc(C(=O)[C@@H](NC(=O)[C@@H]3CCCN3C(=O)[C@@H](NC(=O)OCc3ccncc3)C(C)C)C(C)C)o2)c1 [CE2186, 4-Pyridylmethyleneoxycarbonyl -L-valyl-N-[1-(2-[5-(3-methylbenzyl)-1,3,4-oxadiazolyl]carbonyl)-2-(S)-methylpropyl]-L-prolinamide] | 0.037 | –
Cc1cccc(Cc2nnc(C(=O)[C@@H](NC(=O)CN(C(=O)c3ccc[nH]3)C3CCc4ccccc43)C(C)C)o2)c1 (stereo partly drawn) [CE2195, (Pyrrole-2-carbonyl)-N-[1-(R,S)-indanyl]glycyl-N-[1-(2-[5-(3-methylbenzyl)-1,3,4-oxadiazolyl]carbonyl)-2-(S)-methylpropyl]amide] | 10.6 | –
